Reference: patent publication US20150175974A1, “PRODUCING SOLIDS AND RELATED MOTHER LIQUORS” (Syngenta Participations AG, priority 2012, published 2015)
Values joined by “and” are separate entries in the source; they are usually repeats but may differ in a detail not shown here. Equal entries are not always repeated.

Experiments:
[1] = Particle size distribution of crystallized TMX (Malvern Mastersizer); format: physicochemical
Description: An aqueous solution of TMX at a concentration of 11 mg/ml was prepared. The respective portion of TMX and water was added to an appropriately sized vessel and heated to 60° C. to dissolve the TMX. Once dissolved, phage particles having binding domains selected to bind to TMX were added to the achieve target loading set forth in the Table 1 below. The solution was allowed to cool to room temperature and aged until crystallization was observed. Crystalline products were separated from the liquor by filtration and particle size distribution was measured using a Malvern Mastersizer.

[2] = Crystal shape of TMX crystallized with phage particles (optical and electron microscopy); format: physicochemical; conditions: TMX 11 mg/ml, phage loading C/2 to C (C=37 mg/ml), FIG. 1 and FIG. 2
Description: An aqueous solution of TMX at a concentration of 11 mg/ml was prepared. The respective portion of TMX and water was added to an appropriately sized vessel and heated to 60° C. to dissolve the TMX. […] Phage loading was a C, C/2, C/10, C/25, and C/100. The solution was allowed to cool to room temperature and aged until crystallization was observed. Crystalline products were separated from the liquor by filtration and characterized by microscopy.

[3] = average of the three measurements, TMX 11 mg/ml aqueous, cooled from 60° C.
[4] = single measurements, TMX 11 mg/ml aqueous, dissolved at 60° C., cooled to room temperature, crystals filtered, listed as TMX control

## CN1COCN(Cc2cnc(Cl)s2)/C1=N\[N+](=O)[O-] [TMX, Thiamethoxam]
[1]; [3]
  Size Dv (0.5) average: 23.1057 μm
  Size Dv (0.95) average: 54.11 μm
[1]; phage particles having binding domains selected to bind to TMX, C/25 and C/100
  Particle size of TMX crystallized in the presence of phage particles versus control: marked reduction
[1]; [4]
  Size Dv (0.5): 23.378 μm and 22.048 μm and 23.891 μm
  Size Dv (0.95): 52.18 μm and 54.16 μm and 55.74 μm
[2]
  Crystal shape: more bi-pyramidal shape
